Marks after values point to notes of the source that are not given here.
Tests used:
Drosophila melanogaster [1] = assay: negative geotaxis assay, height climbed by individual flies; format: in vivo
Method: (§1) Unless otherwise mentioned, standard methods of fly manipulation were followed. Standard fly medium consisting of agar-agar, maize powder, brown sugar, dried yeast and nipagin was used. Flies were cultured at 22±1° C., 60% RH, and 12 hrs light (9 AM to 9 PM) and 12 hours dark cycle. D. melanogaster wild type Oregon-R strain was used in the experiment. To obtain males for control and drug treatment, flies from identical cultures grown in glass vials were first allowed to lay eggs in milk bottles containing medium. Flies were shifted to fresh bottles every 12 hr. First 4 sets of bottles were discarded. Flies that emerged in subsequent bottles were only used. Those that emerged in the beginning were first discarded and then flies were collected twice at 12 hr interval. Flies collected each time were kept separately in a single bottle. Two days after first collection, males and females from both the bottles were separated. Males were then pooled together and shifted to a new bottle. Flies were used for control or drug treatment two days later.
Following morning after pooling males for treatment, drugs (Sigma-Aldrich Co, St. Louis, U.S.A.) were first dissolved in distilled water at following concentration: 33.3 mg/ml of strychnine (STR), 40 mg/ml of pentylenetetrazol (PTZ), 20 mg/ml of tetraethylammonium chloride (TEA), 10 mg/ml of lithium […] (LICA) and 2 mg/ml of nicotine (NICO). Appropriate volume of freshly made drug solutions were then poured in molten fly media, and mixed thoroughly, to achieve a final concentration of 3.33 mg/ml of STR, 4 mg/ml of PTZ, 2 mg/ml of TEA, 1 mg/ml of LICA, and 0.2 mg/ml of NICO. For control, i.e., normal food (NF), distilled water of same volume as drug solution was added in the medium and mixed. Following this, the molten media was dispensed in glass vials, stored overnight at 4° C. and then used for above treatment of flies. Thirty male flies were shifted to each of the […] treatment vials, NF, STR, PTZ, TEA, LICA and NICO. Flies were maintained at 22±1° C., 60% RH, and 12 hrs light (9 AM to 9 PM) and 12 hours dark cycle.
On 22nd day of the beginning of drug treatment, three males from each treatment were separately mated to a single virgin female each. The females were grown on NF and were never exposed to any drug at any time. The F1 progenies resulting from each pair mating were pooled together before being further used. F2 generation was obtained through mating in mass the F1 progenies. F1 to F2 flies were never exposed to any drug at any time.
Negative geotaxis assays for measuring height climbed and climbing speed, and horizontal locomotion assay for measuring distance walked—were performed at room temperature, between 9 AM to 9 PM. They were all performed at a specified area in a room, where same light sources were always used. While measuring various locomotor activities, extreme care was taken to ensure that the room is quiet, and the table onto which assays were performed undisturbed and vibration free. Utmost care was taken to ensure identical handling of flies, in minutest details. For measuring height climbed, climbing speed and distance walked, a single fly was randomly selected at a time. This was achieved by first inverting flies from a given treatment vial into an empty vial and then continuously and gently shaking and inverting both the vials in such a way that a single fly is finally trapped in the empty vial. Once trapped, all the three locomotor activities were measured using the same fly, height climbed, climbing speed and distance walked, in that order. One fly each from NF, STR, PTZ, PILO, TEA, LICA, and ESD, selected randomly, was first scored and then the same exercise was repeated for another two flies. Once a fly was scored for all the three locomotor activities, it was discarded. Flies were particularly checked for intact legs and wings, before they were used in negative geotaxis and horizontal locomotion assays.

Drosophila melanogaster [2] = conditions: F1 male and female progeny of drug-fed fathers, routine examination over 30 days
Method: as §1
Following morning after pooling males for treatment, drugs (Sigma-Aldrich Co, St. Louis, U.S.A.) were first dissolved in distilled water at following concentration: 33.3 mg/ml of strychnine (STR), 40 mg/ml of pentylenetetrazol (PTZ), 20 mg/ml of tetraethylammonium chloride (TEA), 10 mg/ml of lithium chloride (LICA) and 2 mg/ml of nicotine (NICO). […]

[3] = F1 males never exposed to drug, fathers drug-fed, assayed on 31st day of emergence, n=30, NF control 25.1
[4] = F2 females (second batch) never exposed to drug, grandfathers drug-fed, 8th day of emergence, n=30, NF control 21.3
[5] = drug exposed parent males, day 13 of treatment
[6] = drug-fed parent males, day 13 of treatment, drug in fly medium (STR 3.33, PTZ 4, TEA 2, LICA 1, NICO 0.2 mg/ml), n=30, NF control 20.86, asterisks = t-test vs NF (*5%, **1%, ***0.1%)

| Compound | Height climbed by flies, Mean (F1) (Drosophila melanogaster [1]; [3]) | Height climbed by flies, Mean (F2) (Drosophila melanogaster [1]; [4]) | change in height climbed compared to normal food (NF) (Drosophila melanogaster [1]; [5]) | Height climbed by flies, Mean (Parents) (Drosophila melanogaster [1]; [6]) | gross locomotor activity compared to control (Drosophila melanogaster [2]) | Height climbed by flies, Mean (F1) (Drosophila melanogaster [1]; in vivo) | Height climbed by flies, Mean (F2) (Drosophila melanogaster [1]; in vivo) | Height climbed by flies, Mean (Parents) (Drosophila melanogaster [1]; in vivo) | change in height climbed compared to normal food (NF) (Drosophila melanogaster [1]; in vivo) |
| --- | --- | --- | --- | --- | --- | --- | --- | --- | --- |
| O=C([O-])[O-].[Li+].[Li+] [LICA, lithium carbonate] | 17.7*** cm | 27.53** cm | increase in the height climbed | 32.96*** cm |  |  |  |  |  |
| CN1CCCC1c1cccnc1 (centres unmarked) [NICO, nicotine] |  |  |  |  | climbed very slowly | 10.86*** cm | 29.36*** cm | 32.16*** cm | increase in the height climbed |
| C1CCc2nnnn2CC1 [PTZ, pentylenetetrazol] |  |  | increase in the height climbed |  |  |  |  |  |  |
| O=C1C[C@@H]2OCC=C3CN4CC[C@]56c7ccccc7N1[C@H]5[C@H]2[C@H]3C[C@H]46 [STR, strychnine] | 16.56*** cm | 29.83*** cm |  | 28** cm |  |  |  |  |  |
| CC[N+](CC)(CC)CC.[Cl-] [TEA, tetraethylammonium chloride] | 12.43*** cm | 29.46*** cm | increase in the height climbed | 32.4*** cm |  |  |  |  |  |
